The test deals with HCV 1b genotype replicon. Kind of test: HCV replicon assay (qRT-PCR or luciferase), genotype 1b. Conditions: Hepatitis C virus, read-out: Genotype-1b replicon EC50 Range. Type of test: cell-based. From the text:
HCV replicon cell lines (kindly provided by R. Bartenschlager) isolated from colonies as described by Lohman et. al. (Lohman et al. (1999) Science 285: 110-113, expressly incorporated by reference in its entirety) and used for all experiments. The HCV replicon has the nucleic acid sequence set forth in EMBL Accession No.: AJ242651, the coding sequence of which is from nucleotides 1801 to 8406.
The coding sequence of the published HCV replicon was synthesized and subsequently assembled in a modified plasmid pBR322 (Promega, Madison, Wis.) using standard molecular biology techniques. […]
EC50 values of single agent compounds and combinations were determined by HCV RNA detection using quantitative RT-PCR, according to the manufacturer's instructions, with a TaqMan® One-Step RT-PCR Master Mix Reagents Kit (Cat# AB 4309169, Applied Biosystems) on an ABI Model 7500 thermocycler. The TaqMan primers used for detecting and quantifying HCV RNA were obtained from Integrated DNA Technologies. HCV RNA was normalized to GAPDH RNA levels in drug-treated cells, which is detected and quantified using the Human GAPDH Endogenous Control Mix (Applied Biosystems, AB 4310884E). […] Chemical agent cytotoxicity is evaluated using an MTS assay according to the manufacturer's directions (Promega). […]

The structures appear in SMILES notation.

For the molecule `CN(C)[C@H](C(=O)N1CCC[C@H]1c1nc(C(=O)N[C@H]2CC[C@H](NC(=O)c3c[nH]c([C@@H]4CCCN4C(=O)[C@@H](c4ccccc4)N(C)C)n3)CC2)c[nH]1)c1ccccc1` [Example 2], the concentration for a half-maximal effect (EC50) was more than 10 nM.

Source of the values: patent US8426458B2, “Hepatitis C Virus inhibitors” (priority 2009, dated 2013).
